What was measured:
[1] = biological target: D(3) dopamine receptor (Homo sapiens, UniProt P35462); assay: Binding affinity, displacement of [125I]iodosulpiride from human Dopamine receptor D3 expressed in CHO cells; type: cell-based
[2] = biological target: D(2) dopamine receptor (Homo sapiens, UniProt P14416); assay: Binding affinity, displacement of [125I]iodosulpiride from human Dopamine receptor D2 expressed in CHO cells; type: cell-based
[3] = biological target: Dopamine receptors; D2 & D3 (Homo sapiens) (UniProt P14416+P35462); assay: Ratio of D3 receptor to the D2 receptor; type: protein assay

Sequence of D(3) dopamine receptor (P35462 whole entry): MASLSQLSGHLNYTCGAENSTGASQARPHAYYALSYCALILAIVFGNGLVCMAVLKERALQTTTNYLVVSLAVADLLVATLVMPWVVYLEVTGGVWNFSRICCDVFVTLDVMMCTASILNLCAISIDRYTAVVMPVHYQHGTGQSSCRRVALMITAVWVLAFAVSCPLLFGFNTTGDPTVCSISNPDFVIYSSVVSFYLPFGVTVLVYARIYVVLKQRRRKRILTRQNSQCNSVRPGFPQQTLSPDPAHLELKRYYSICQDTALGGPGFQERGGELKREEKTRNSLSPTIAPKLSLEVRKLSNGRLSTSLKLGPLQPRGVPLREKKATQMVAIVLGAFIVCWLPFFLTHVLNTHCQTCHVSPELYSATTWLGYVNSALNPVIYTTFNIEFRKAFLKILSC
Sequence of D(2) dopamine receptor (P14416 whole entry): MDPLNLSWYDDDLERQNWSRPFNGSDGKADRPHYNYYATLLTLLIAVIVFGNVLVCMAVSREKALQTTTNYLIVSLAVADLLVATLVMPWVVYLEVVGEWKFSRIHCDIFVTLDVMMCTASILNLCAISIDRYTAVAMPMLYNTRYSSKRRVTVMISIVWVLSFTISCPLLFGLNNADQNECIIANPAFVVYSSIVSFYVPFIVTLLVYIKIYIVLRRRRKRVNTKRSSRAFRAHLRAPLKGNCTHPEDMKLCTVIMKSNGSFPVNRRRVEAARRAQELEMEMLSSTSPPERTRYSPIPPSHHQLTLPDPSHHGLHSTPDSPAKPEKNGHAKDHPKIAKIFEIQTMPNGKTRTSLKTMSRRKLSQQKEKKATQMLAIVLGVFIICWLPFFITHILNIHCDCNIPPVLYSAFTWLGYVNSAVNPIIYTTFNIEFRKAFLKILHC

Compound | Ki [1] | Ki [2] | Ratio [3]
CCN(Cc1ccc(OC)c(OC)c1)Cc1ccc(-c2cc(S(=O)(=O)CC)ccc2OC)[nH]1 | 12.6 nM | 31.6 nM | 3
CCN(Cc1cccc(C)c1)Cc1ccc(-c2cc(S(=O)(=O)CC)ccc2OC)[nH]1 | 1.58 nM | 7.94 nM | 5
CCN(Cc1ccc(-c2cc(S(=O)(=O)CC)ccc2OC)[nH]1)Cc1ccccc1Cl | 6.31 nM | 20 nM | 3
CCS(=O)(=O)c1ccc(OC)c(-c2ccc(CN3CCCCCC3c3ccc(OC)cc3)[nH]2)c1 (stereo not drawn) | 1.58 nM | 25.1 nM | 15
CCS(=O)(=O)c1ccc(OC)c(-c2ccc(CN3CCc4ccccc4C3)[nH]2)c1 | 31.6 nM | 100 nM | 3
CCS(=O)(=O)c1ccc(OC)c(-c2ccc(CN3CCCCCC3c3ccccc3C)[nH]2)c1 (stereo not drawn) | 100 nM | 1260 nM | 10
CCN(Cc1cccc(OC)c1)Cc1ccc(-c2cc(S(=O)(=O)CC)ccc2OC)[nH]1 | 7.94 nM | 79.4 nM | 10
CCN(Cc1ccc(C)cc1)Cc1ccc(-c2cc(S(=O)(=O)CC)ccc2OC)[nH]1 | 0.2 nM | 0.398 nM | 2
CCN(Cc1ccc(-c2cc(S(=O)(=O)CC)ccc2OC)[nH]1)Cc1ccccc1C | 3.16 nM | 6.31 nM | 2
CCS(=O)(=O)c1ccc(OC)c(-c2ccc(CN3CCCCCC3c3cccc(OC)c3)[nH]2)c1 (stereo not drawn) | 50.1 nM | 794 nM | 15
CCN(Cc1ccc(-c2cc(S(=O)(=O)CC)ccc2OC)[nH]1)Cc1ccccc1OC | 10 nM | 15.8 nM | –
CCN(Cc1ccc(OC)cc1)Cc1ccc(-c2cc(S(=O)(=O)CC)ccc2OC)[nH]1 | 0.251 nM | 2 nM | 8
CCN(Cc1ccc(-c2cc(S(=O)(=O)CC)ccc2OC)[nH]1)C1CCCc2ccccc21 (stereo not drawn) | 5.01 nM | 12.6 nM | 3
CCN(Cc1cccc(Cl)c1)Cc1ccc(-c2cc(S(=O)(=O)CC)ccc2OC)[nH]1 | 2.51 nM | 10 nM | 4
CCN(Cc1ccc(Cl)cc1)Cc1ccc(-c2cc(S(=O)(=O)CC)ccc2OC)[nH]1 | 0.398 nM | 1 nM | 3
CCS(=O)(=O)c1ccc(OC)c(-c2ccc(CN3CCCCCC3c3ccc(C)cc3)[nH]2)c1 (stereo not drawn) | 0.794 nM | 25.1 nM | 30
CCN(Cc1ccc2c(c1)OCO2)Cc1ccc(-c2cc(S(=O)(=O)CC)ccc2OC)[nH]1 | 0.631 nM | 3.16 nM | 5

Next, values leading:

Ki [1] | Ki [2] | Ratio [3] | Compound
– | – | 3 | CCN(Cc1ccccc1)Cc1ccc(-c2cc(S(=O)(=O)CC)ccc2OC)[nH]1
10 nM | 39.8 nM | 4 | CCN1[C@H](c2ccccc2)CC[C@H]1c1ccc(-c2cc(S(=O)(=O)CC)ccc2OC)[nH]1
– | – | 30 | CCS(=O)(=O)c1ccc(OC)c(-c2ccc(CN3CCCCCC3c3ccccc3)[nH]2)c1 (stereo not drawn)
10 nM | 39.8 nM | 4 | CCS(=O)(=O)c1ccc(OC)c(-c2ccc(C3CCCN3Cc3ccccc3)[nH]2)c1 (stereo not drawn)
0.794 nM | 7.94 nM | 10 | CCN(Cc1ccc(-c2cc(S(=O)(=O)CC)ccc2OC)[nH]1)[C@H](C)c1ccccc1
0.794 nM | 0.794 nM | – | CCN(Cc1ccc(-c2cc(S(=O)(=O)CC)ccc2OC)[nH]1)C1CCc2ccccc21 (stereo not drawn)
2.51 nM | 25.1 nM | 10 | CCN(Cc1ccc(-c2cc(S(=O)(=O)CC)ccc2OC)[nH]1)[C@@H](C)c1ccccc1
100 nM | 158 nM | – | CCN1[C@@H](c2ccc(-c3cc(S(=O)(=O)CC)ccc3OC)[nH]2)CC[C@H]1c1ccccc1

— ChEMBL document CHEMBL1129831, “Novel 2,5-disubstituted-1H-pyrroles with high affinity for the dopamine D3 receptor: N-benzyl modifications” (Bioorg Med Chem Lett, 1997)
